Data: article PMC6198510, “Switching Between Bicyclic and Linear Peptides — The Sulfhydryl-Specific Linker TPSMB Enables Reversible Cyclization of Peptides” (Frontiers in Chemistry, 2018)
Like-named read-outs stand apart in the source and are kept apart here. Starred links: 1 amine or outer side, 2 acyl side, 3 side chain; linkers in the order of their positions; H or OH if unused. Positions of bridges follow the written chain, without caps; N, C: chain ends. Residues, ends and D or L forms follow the SMILES beside them. Benzene(1,3,5-(CH2S)3) = c1c(CS[*:1])cc(CS[*:3])cc1CS[*:2]

Tests used:
JNK3 [1] = molecular target: T1, JNK3 (Homo sapiens, UniProt P53779); test: direct titration fluorescence polarization assay; assay type: binding; conditions: direct titration FP
T1 construct: 39-402 was performed as described in literature; made in house
Procedure: (§1) VII: Expression and Purification of JNK3
(§2) The expression and purification of JNK3339-402 was performed as described in literature. [Lange, A.; Günther, M.; Büttner, F. M.; Zimmermann, M. O.; Heidrich, J.; Hennig, S.; Zahn, S.; Schall, C.; Sievers-Engler, A.; Ansideri, F.; et al. Targeting the Gatekeeper MET146 of C-Jun N-Terminal Kinase 3 Induces a Bivalent Halogen/Chalcogen Bond. Journal of the American Chemical Society 2015, 137
(§3) VIII: Fluorescence polarization assay
Fluorescence polarization assays were performed in 96-wellplates (black, non-binding, Greiner bio-one). The measurements were performed in a CLARIOstar microplate reader (BMG Labtech, Ortenberg, Germany; excit. filter: 480 nm and an emiss. filter: 530 nm). Purified JNK3 was diluted in buffer (HEPES-Buffer, 25 mM) containing additional 0.1 mg/mL BSA. In the case of direct binding fluorescence polarization experiments, each protein concentration with a maximum concentration between 5 μM and 200 μM and a minimum concentration between 0.08 nM – 0.76 nM was measured in triplicates. The KD was obtained by curve fit based on eleven protein concentrations. […]
(§4) For all experiments DMSO (>99.5% (GC)) was […]
(§5) consistently used with a steady concentration of 5% (v/v). Before each measurement, the plates were shaked at 350 rpm for 30 min at room temperature on a plate shaker (Eppendorf MixMate). Before the measurement, the plates were incubated within the microplate reader for 2 min at 25°C and the focal height was adjusted to yield the optimal fluorescence intensity. Measured data was plotted and KD values were obtained by curve fitting of a standard four parameter logistic nonlinear regression model using the program Origin 9.1.
IX: Fluorescence polarization data
Table S2: Overview of the results obtained in direct titration fluorescence polarization assays.
SE = standard error from curve fit, SD = standard deviation from experiments 1-3. […]
Nucleic Acids Research, 37(Web Server issue), W441–W445], SE = standard error from curve fit. […]

JNK3 [2] = molecular target: T1, JNK3; test: competitive fluorescence polarization assay (displacement of PIT0105006); assay type: binding; conditions: competitive FP
Procedure: as §1, §2, §3
Fluorescence polarization assays were performed in 96-wellplates (black, non-binding, Greiner bio-one). The measurements were performed in a CLARIOstar microplate reader (BMG Labtech, Ortenberg, Germany; excit. filter: 480 nm and an emiss. filter: 530 nm). Purified JNK3 was diluted in buffer (HEPES-Buffer, 25 mM) containing additional 0.1 mg/mL BSA. […]
The KD was obtained by curve fit based on eleven protein concentrations. For competitive binding fluorescence polarization experiments, sample concentrations between 200 μM and 10 nM were measured in triplicates. A steady concentration of 10 nM was used for JNK3 and of 5 nM for the fluorescein-labelled compound PIT0105006 (KD= 3.0 ± 0.2 nM). [Ansideri, F.; Lange, A; El-Gokha […]
A.; Boeckler F. M.; Koch, P. Fluorescence polarization-based assays for detecting compounds binding […]
503, 28-40.]Control measurements were performed with PIT0104002 (concentration between 10 μM […]
as §4, §5
IX: Fluorescence polarization data […]
Table S3: Overview of the results obtained in competitive fluorescence polarization assays. a Conversion of obtained IC50 mean values to KI were performed using a web-based application available at: http://sw16.im.med.umich.edu/software/calc_ki/ (19.07.2018) [Cer, R. Z., Mudunuri, U., Stephens, R., & Lebeda, F. J. (2009). IC50-to-Ki: a web-based tool for converting IC50 to Ki values for inhibitors of enzyme activity and ligand binding. Nucleic Acids Research, 37(Web Server issue), W441–W445], SE = standard error from curve fit. […]

[3] = fluorescein-labeled TPSMB-modified bicyclic peptide, JNK3 titrated, eleven protein concentrations in triplicates, 25 mM HEPES, 0.1 mg/mL BSA, 5% DMSO, 25°C, mean of experiments 1-3 (JK16, JK18: one experiment), read-out: Mean KD
[4] = converted from mean IC50 with web-based IC50-to-Ki tool, read-out: KI
[5] = unlabeled TPSMB bicyclic peptide displacing 5 nM PIT0105006 from 10 nM JNK3, 200 μM-10 nM in triplicates, 5% DMSO, 25°C, experiment 1, read-out: IC50 Exp. 1
[6] = unlabeled TPSMB bicyclic peptide, mean of experiments 1-2 (JK20: one experiment), read-out: Mean IC50

T1 sequence (P53779 39-402 limits assumed): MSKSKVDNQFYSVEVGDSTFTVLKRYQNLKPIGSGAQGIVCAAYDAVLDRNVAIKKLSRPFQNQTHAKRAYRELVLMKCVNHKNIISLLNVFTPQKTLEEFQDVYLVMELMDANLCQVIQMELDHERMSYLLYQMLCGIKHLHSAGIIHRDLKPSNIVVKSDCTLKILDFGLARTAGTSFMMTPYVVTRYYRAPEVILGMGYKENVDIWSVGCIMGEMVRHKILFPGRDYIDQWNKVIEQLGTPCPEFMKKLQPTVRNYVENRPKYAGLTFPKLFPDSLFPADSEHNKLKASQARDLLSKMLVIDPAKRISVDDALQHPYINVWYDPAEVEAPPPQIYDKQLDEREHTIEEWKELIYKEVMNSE

| Kd (JNK3 [1]; [3]) [µM] | Ki (JNK3 [2]; [4]) [µM] | Ki (JNK3 [2]; single experiment with IC50 = 15.6 μM, read-out: KI (Figure 5B)) [µM] | IC50 (JNK3 [2]; [5]) [µM] | IC50 (JNK3 [2]; unlabeled TPSMB bicyclic peptide displacing 5 nM PIT0105006 from 10 nM JNK3, experiment 2, read-out: IC50 Exp. 2) [µM] | Kd (JNK3 [1]; fluorescein-labeled unmodified linear peptide, without cyclisation by TPSMB, curve fit (SE: 250 μM), read-out: KD of linear peptide) [µM] | IC50 (JNK3 [2]; [6]) [µM] | Structure (SMILES) |
| --- | --- | --- | --- | --- | --- | --- | --- |
| 1.7 ± 0.8 | 6.6 | 3.6 | 15.6 | 41.3 |  |  | CSCC[C@@H]1NC(=O)[C@@H]2CSSCc3cc(cc(c3)CSSC[C@@H](C(=O)NCC(N)=O)NC(=O)[C@H](Cc3c[nH]c4ccccc34)NC(=O)[C@H](CCCNC(=N)N)NC(=O)[C@H](Cc3ccc(O)cc3)NC(=O)[C@H](CC(=O)O)NC(=O)[C@H](Cc3ccccc3)NC1=O)CSSC[C@H](NC(=O)[C@H](C)N)C(=O)N[C@@H](CC(=O)O)C(=O)N[C@@H](CC(=O)O)C(=O)N[C@@H](CCC(N)=O)C(=O)N[C@@H](Cc1c[nH]c3ccccc13)C(=O)N[C@@H](CCC(=O)O)C(=O)N[C@@H](Cc1ccc(O)cc1)C(=O)N2 [JK1-TPSMB] (H-ACDDQWEYCMFDYRWCG-NH2; linker 2-9-16 via Benzene(1,3,5-(CH2S)3)) |
| 1.7 ± 0.8 | 6.6 |  |  |  | ~390 | 28.4 | CSCC[C@H](NC(=O)[C@H](CS)NC(=O)[C@H](Cc1ccc(O)cc1)NC(=O)[C@H](CCC(=O)O)NC(=O)[C@H](Cc1c[nH]c2ccccc12)NC(=O)[C@H](CCC(N)=O)NC(=O)[C@H](CC(=O)O)NC(=O)[C@H](CC(=O)O)NC(=O)[C@H](CS)NC(=O)[C@H](C)N)C(=O)N[C@@H](Cc1ccccc1)C(=O)N[C@@H](CC(=O)O)C(=O)N[C@@H](Cc1ccc(O)cc1)C(=O)N[C@@H](CCCNC(=N)N)C(=O)N[C@@H](Cc1c[nH]c2ccccc12)C(=O)N[C@@H](CS)C(=O)NCC(N)=O [JK1] (H-ACDDQWEYCMFDYRWCG-NH2) |
|  | 6.5 |  | 27.8 |  |  | 27.8 | CC[C@H](C)[C@@H]1NC(=O)[C@H](CCC(=O)O)NC(=O)[C@H](CC(=O)O)NC(=O)[C@H](Cc2c[nH]cn2)NC(=O)[C@@H](NC(=O)[C@H](C)N)CSSCc2cc3cc(c2)CSSC[C@H](NC(=O)[C@H]([C@@H](C)O)NC(=O)[C@H](Cc2c[nH]c4ccccc24)NC1=O)C(=O)N[C@@H](C(C)C)C(=O)N[C@@H](Cc1ccccc1)C(=O)N[C@@H](Cc1c[nH]cn1)C(=O)N[C@@H](CC(=O)O)C(=O)N[C@@H](CCC(=O)O)C(=O)N[C@@H](Cc1ccccc1)C(=O)N[C@H](C(=O)NCC(N)=O)CSSC3 [JK20-TPSMB] (H-ACHDEIWTCVFHDEFCG-NH2; linker 2-9-16 via Benzene(1,3,5-(CH2S)3)) |
|  | 5.5 |  |  |  |  | 23.6 | CC(C)C[C@@H]1NC(=O)[C@H](CC(=O)O)NC(=O)[C@H](CCC(=O)O)NC(=O)[C@@H]2CSSCc3cc(cc(c3)CSSC[C@@H](C(=O)NCC(N)=O)NC(=O)[C@H](CC(=O)O)NC(=O)[C@H](CC(=O)O)NC(=O)[C@H](CC(N)=O)NC1=O)CSSC[C@H](NC(=O)[C@H](C)N)C(=O)N[C@@H](Cc1ccccc1)C(=O)N[C@@H](Cc1c[nH]c3ccccc13)C(=O)N[C@@H](Cc1c[nH]c3ccccc13)C(=O)N[C@@H](Cc1ccccc1)C(=O)NCC(=O)N[C@@H](C)C(=O)N2 [JK10-TPSMB] (H-ACFWWFGACEDLNDDCG-NH2; linker 2-9-16 via Benzene(1,3,5-(CH2S)3)) |
